Assay results taken from patent publication US7879838B2, “Heteroaryl substituted pyrazinyl-piperazine-piperidines with CXCR3 antagonist activity” (Schering Corporation, priority 2005, dated 2011).

target: T1, Human CXCR3 (N-delta 4) (Homo sapiens, UniProt P49682); assay: Human CXCR3 (N-delta 4) scintillation proximity assay (SPA), [125I] IP-10 binding to Ba/F3-hCXCR3 membranes; conditions: IC50 rating; 25 pM [125I] IP-10, membranes of Ba/F3 cells expressing human CXCR3 (N-delta 4)
T1 construct: CD8 leader (N); Flag tag; expressed in transfected cells; membranes prepared
T1 sequence (P49682 5-368 limits assumed): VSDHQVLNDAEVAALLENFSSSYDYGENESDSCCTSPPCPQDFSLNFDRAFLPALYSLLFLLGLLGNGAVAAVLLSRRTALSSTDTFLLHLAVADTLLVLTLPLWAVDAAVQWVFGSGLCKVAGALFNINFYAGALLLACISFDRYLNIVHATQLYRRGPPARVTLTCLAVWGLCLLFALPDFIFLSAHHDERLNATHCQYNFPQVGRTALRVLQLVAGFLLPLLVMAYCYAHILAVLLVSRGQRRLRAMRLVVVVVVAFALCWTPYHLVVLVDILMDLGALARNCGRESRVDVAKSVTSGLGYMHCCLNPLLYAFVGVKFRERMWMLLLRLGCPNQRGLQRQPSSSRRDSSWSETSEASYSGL
Description: The inventive compounds can readily be evaluated to determine activity at The CXCR3 receptors by known methods, such as, for example, Development of Human CXCR3 (N-delta 4) Binding Assay.
Cloning and Expression of Human CXCR3 (N-delta 4):
The DNA encoding human CXCR3 was cloned by PCR using human genomic DNA (Promega, Madison, Wis.) as a template. The PCR primers were designed based on the published sequence of human orphan receptor GPR9 (1) with incorporated restriction sites, a Kozak consensus sequence, CD8 leader and Flag tag. The PCR product was subcloned into the mammalian expression vector pME18Sneo, a derivative of the SR-alpha expression vector (designated as pME18Sneo-hCXCR3 (N-delta 4).
IL-3-dependent mouse pro-B cells Ba/F3 were transfected by electroporation in 0.4 ml Dulbecco's PBS containing 4×10^6 cells with 20 μg of pME18Sneo-hCXCR3 (N-delta 4) plasmid DNA. Cells were pulsed at 400 Volts, 100 OHMs, 960 μFd. The transfected cells were under selection with 1 mg/ml G418 (Life Technologies, Gaithersburg, Md.). G418-resistant Ba/F3 clones were screened for CXCR3 expression by specific binding of [^125I] IP-10 (NEN Life Science Products, Boston, Mass.).
Preparation of Ba/F3-hCXCR3 (N-delta 4) Membranes
Ba/F3 cells expressing human CXCR3 (N-delta 4) were pelleted and resuspended in the lysis buffer containing 10 mM HEPES, pH 7.5 and Complete® protease inhibitors (1 tablet per 100 ml) (Boehringer Mannheim, Indianapolis, Ind.) at a cell density of 20×10^6 cells per ml. After 5 minutes incubation on ice, cells were transferred to 4639 cell disruption bomb (Parr Instrument, Moline, Ill.) and applied with 1,500 psi of nitrogen for 30 minutes on ice. Large cellular debris was removed by centrifugation at 1,000×g. Cell membrane in the supernatant was sedimented at 100,000×g. The membrane was resuspended in the lysis buffer supplemented with 10% sucrose and stored at −80° C. Total protein concentration of the membrane was determined by BCA method from Pierce (Rockford, Ill.).
Human CXCR3 (N-delta 4) Scintillation Proximity Assay (SPA)
For each assay point, 2 μg of membrane was preincubated for 1 hr with 300 μg wheat germ agglutinin (WGA) coated SPA beads (Amersham, Arlington Heights, Ill.) in the binding buffer (50 mM HEPES, 1 mM CaCl2, 5 mM MgCl2, 125 mM NaCl, 0.002% NaN3, 1.0% BSA) at room temperature. The beads were spun down, washed once, resuspended in the binding buffer and transferred to a 96-well Isoplate (Wallac, Gaithersburg, Md.). 25 pM of [^125I] IP-10 with tested compounds in a series of titration were added to start the reaction. After 3 hr reaction at room temperature, the amount of [^125I] IP-10 bound to the SPA beads was determined with a Wallac 1450 Microbeta counter.
The Ki values for the various example compounds of the present invention are given in the afore-mentioned Table 1. From these values, it would be apparent to the skilled artisan that the compounds of the invention have excellent utility CXCR3 antagonists.

IC50 [nM]	Compound
25 to 100	CC[C@H]1CN(c2nc(N)c(C(=O)NCCS(C)(=O)=O)nc2Cl)CCN1C1CCN(Cc2ccc(Cl)nc2N)CC1 [compound 53]
25 to 100	CC[C@H]1CN(c2nc(N)c(C(=O)NCCO)nc2Cl)CCN1C1CCN(C(=O)c2ccc(C(F)(F)F)nc2N)CC1 [compound 63]
25 to 100	CC[C@H]1CN(c2nc(N)c(C(=O)NCCO)nc2Cl)CCN1C1CCN(Cc2ccc(Cl)nc2N2CCOCC2)CC1 [compound 66]
25 to 100	CC[C@H]1CN(c2nc(N)c(C(=O)NCCO)nc2Cl)CCN1C1CCN(C(=O)c2ccc(C(F)(F)F)nc2Cl)CC1 [compound 68]
25 to 100	CC[C@H]1CN(c2nc(N)c(C(=O)NCCO)nc2Cl)CCN1C1CCN(Cc2ccc(C(F)(F)F)nc2)CC1 [compound 70]
> 100	CC[C@H]1CN(c2nc(N)c(C(=O)NCCO)nc2Cl)CCN1C1CCN(Cc2ccc(C#N)nc2)CC1 [compound 72]
> 100	CC[C@H]1CN(c2nc(N)c(C(=O)NC3CC3)nc2Cl)CCN1C1CCN(Cc2cc(C)nn2C)CC1 [compound 74]
> 100	CC[C@H]1CN(c2nc(N)c(C(N)=O)nc2Cl)CCN1C1CCN(Cc2ccc(Cl)n3ccnc23)CC1 [compound 75]
> 100	CC[C@H]1CN(c2nc(N)c(C(=O)NC3CC3)nc2Cl)CCN1C1CCN(C(=O)c2cc(F)c(N)nc2Cl)CC1 [compound 78]
> 100	CC[C@H]1CN(c2nc(N)c(C(=O)NC3CC3)nc2Cl)CCN1C1CCN(Cc2c(C)nn(C)c2C)CC1 [compound 81]
> 100	CC[C@H]1CN(c2nc(N)c(C(=O)NCCO)nc2Cl)CCN1C1CCN(Cc2ccc(Cl)nn2)CC1 [compound 85]
> 100	CC[C@H]1CN(c2nc(N)c(C(=O)NCCO)nc2Cl)CCN1C1CCN(C(=O)c2ccc(Cl)nc2NC)CC1 [compound 91]
> 100	CC[C@H]1CN(c2nc(N)c(C(=O)NCCO)nc2Cl)CCN1C1CCN(Cc2ccc(N3CCOCC3)nc2Cl)CC1 [compound 92]
> 100	CC[C@H]1CN(c2nc(N)c(C(=O)NCCO)nc2Cl)CCN1C1CCN(Cc2cc3ccccc3nc2Cl)CC1 [compound 94]
> 100	CC[C@H]1CN(c2nc(N)c(C(=O)NCCO)nc2Cl)CCN1C1CCN(Cc2ccc(NC3CC3)nc2Cl)CC1 [compound 97]

Continued, compound first:

Compound	IC50 [nM]
CC[C@H]1CN(c2nc(N)c(C(N)=O)nc2Cl)CCN1C1CCN(Cc2ccc(Cl)nc2)CC1 [compound 49]	25 to 100
CC[C@H]1CN(c2nc(N)c(C(=O)NCCNS(C)(=O)=O)nc2Cl)CCN1C1CCN(C(=O)c2ccc(Cl)nc2N)CC1 [compound 50]	25 to 100
CC[C@H]1CN(c2nc(N)c(C(=O)NC3CCOC3)nc2Cl)CCN1C1CCN(C(=O)c2ccc(Cl)nc2N)CC1 (stereo partly drawn) [compound 51]	25 to 100
CC[C@H]1CN(c2nc(N)c(C(=O)NCCN3CCCC3)nc2Cl)CCN1C1CCN(C(=O)c2ccc(Cl)nc2N)CC1 [compound 52]	25 to 100
CC[C@H]1CN(c2nc(N)c(C(=O)NC3CCS(=O)(=O)C3)nc2Cl)CCN1C1CCN(C(=O)c2ccc(Cl)nc2N)CC1 (stereo partly drawn) [compound 54]	25 to 100
CC[C@H]1CN(c2nc(N)c(C(=O)NC3CCOC3=O)nc2Cl)CCN1C1CCN(C(=O)c2ccc(Cl)nc2N)CC1 (stereo partly drawn) [compound 55]	25 to 100
CC[C@H]1CN(c2nc(N)c(C(N)=O)nc2Cl)CCN1C1CCN(C(=O)c2cc(F)c(Cl)nc2Cl)CC1 [compound 56]	25 to 100
CC[C@H]1CN(c2nc(N)c(C(=O)NCc3ccco3)nc2Cl)CCN1C1CCN(C(=O)c2ccc(Cl)nc2N)CC1 [compound 57]	25 to 100
CC[C@H]1CN(c2nc(NCc3ccc(F)c(F)c3)c(C(=O)OC)nc2Cl)CCN1C1CCN(C(=O)c2ccc(Cl)nc2N)CC1 [compound 60]	25 to 100
CC[C@H]1CN(c2nc(N)c(C(=O)NC3COCC3O)nc2Cl)CCN1C1CCN(C(=O)c2ccc(Cl)nc2N)CC1 (stereo partly drawn) [compound 61]	25 to 100
CC[C@H]1CN(c2nc(N)c(C(=O)NCc3cccs3)nc2Cl)CCN1C1CCN(C(=O)c2ccc(Cl)nc2N)CC1 [compound 62]	25 to 100
CC[C@H]1CN(c2nc(N)c(C(=O)NCCN(C)C)nc2Cl)CCN1C1CCN(C(=O)c2ccc(Cl)nc2N)CC1 [compound 64]	25 to 100
CC[C@H]1CN(c2nc(N)c(C(=O)NN)nc2Cl)CCN1C1CCN(C(=O)c2ccc(Cl)nc2N)CC1 [compound 65]	25 to 100
CC[C@H]1CN(c2nc(N)c(C(=O)NCCS(C)(=O)=O)nc2Cl)CCN1C1CCN(C(=O)c2ccc(Cl)nc2N)CC1 [compound 67]	25 to 100
CC[C@H]1CN(c2nc(N)c(C(=O)NN)nc2Cl)CCN1C1CCN(C(=O)c2ccc(-n3cccc3)nc2)CC1 [compound 69]	25 to 100
CC[C@H]1CN(c2nc(N)c(C(=O)NN)nc2Cl)CCN1C1CCN(C(=O)c2cnc(Cl)c(Cl)c2)CC1 [compound 71]	25 to 100
CC[C@H]1CN(c2nc(N)c(C(=O)NN)nc2Cl)CCN1C1CCN(C(=O)c2cc(F)c(N)nc2Cl)CC1 [compound 73]	> 100

Compound	IC50 [nM]
CCOC(=O)C1(NC(=O)c2nc(Cl)c(N3CCN(C4CCN(C(=O)c5ccc(Cl)nc5N)CC4)[C@@H](CC)C3)nc2N)CC1 [compound 76]	> 100
CC[C@H]1CN(c2nc(NC(=O)N(C)C)c(C(=O)NC)nc2Cl)CCN1C1CCN(C(=O)c2ccc(Cl)nc2N)CC1 [compound 77]	> 100
CC[C@H]1CN(c2nc(N)c(C(=O)NCCO)nc2Cl)CCN1C1CCN(C(=O)c2cnc(Cl)nc2C(F)(F)F)CC1 [compound 79]	> 100
CCOC(=O)NCc1nc(Cl)c(N2CCN(C3CCN(C(=O)c4ccc(Cl)nc4N)CC3)[C@@H](CC)C2)nc1N [compound 80]	> 100
CC[C@H]1CN(c2nc(N)c(C(=O)NCC(C)(C)O)nc2Cl)CCN1C1CCN(C(=O)c2ccc(Cl)nc2N)CC1 [compound 82]	> 100
CC[C@H]1CN(c2nc(N)c(C(=O)Nc3nccc(=O)[nH]3)nc2Cl)CCN1C1CCN(C(=O)c2ccc(Cl)nc2N)CC1 [compound 83]	> 100
CC[C@H]1CN(c2nc(NCC3CC3)c(C(N)=O)nc2Cl)CCN1C1CCN(C(=O)c2ccc(Cl)nc2N)CC1 [compound 84]	> 100
CC[C@H]1CN(c2nc(N)c(C(=O)NNC(=O)C3CC3)nc2Cl)CCN1C1CCN(C(=O)c2ccc(Cl)nc2N)CC1 [compound 86]	> 100
CC[C@H]1CN(c2nc(N)c(C(=O)N3CC(O)C3)nc2Cl)CCN1C1CCN(C(=O)c2ccc(Cl)nc2N)CC1 [compound 87]	> 100
CC[C@H]1CN(c2nc(N)c(C(N)=O)nc2Cl)CCN1C1CCN(C(=O)c2ccc(-n3cccc3)nc2)CC1 [compound 88]	> 100
CC[C@H]1CN(c2nc(N)c(C(=O)Nc3ncccc3O)nc2Cl)CCN1C1CCN(C(=O)c2ccc(Cl)nc2N)CC1 [compound 89]	> 100
CC[C@H]1CN(c2nc(N)c(C(=O)N/C(N)=N/C#N)nc2Cl)CCN1C1CCN(C(=O)c2ccc(Cl)nc2N)CC1 [compound 90]	> 100
CC[C@H]1CN(c2nc(N)c(C(=O)NC3CCC(O)CC3)nc2Cl)CCN1C1CCN(C(=O)c2ccc(Cl)nc2N)CC1 (stereo partly drawn) [compound 93]	> 100
CC[C@H]1CN(c2nc(N)c(C(=O)NC(=N)N3CCCC3)nc2Cl)CCN1C1CCN(C(=O)c2ccc(Cl)nc2N)CC1 [compound 95]	> 100
CC[C@H]1CN(c2nc(N)c(C(N)=O)nc2Cl)CCN1C1CCN(C(=O)c2cc(F)c(N)nc2Cl)CC1 [compound 96]	> 100
CC[C@H]1CN(c2nc(N)c(C(=O)NCCCN(C)C)nc2Cl)CCN1C1CCN(C(=O)c2ccc(Cl)nc2N)CC1 [compound 98]	> 100
